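Growth conditions: 96-well plates. Treatment: test compound, 48 hours, 5 concentrations. Analysis: linear interpolation between bracketing concentrations; unreached endpoints set to highest concentration. Definition used: TGI = concentration required for complete inhibition of growth.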
Columns and labels:
Experiment in all cases: inhibition of tumour cell growth, NCI panel, 48 h
OVCAR-3 ovarian = test system: OVCAR-3 ovarian
LOX IMVI melanoma = test system: LOX IMVI melanoma
SK-MEL-28 melanoma = test system: SK-MEL-28 melanoma
SF-539 CNS = test system: SF-539 CNS
SR leukemia = test system: SR leukemia
HOP-62 NSCLC = test system: HOP-62 NSCLC
NCI/ADR-RES ovarian = test system: NCI/ADR-RES ovarian
NCI-H460 lung = test system: NCI-H460 lung
HS 578T breast = test system: HS 578T breast
M14 melanoma = test system: M14 melanoma
UO-31 renal = test system: UO-31 renal
HCT-15 colon = test system: HCT-15 colon
MALME-3M melanoma = test system: MALME-3M melanoma
MCF7 breast = test system: MCF7 breast
HL-60(TB) leukemia = test system: HL-60(TB) leukemia
OVCAR-4 ovarian = test system: OVCAR-4 ovarian
COLO 205 colon = test system: COLO 205 colon
OVCAR-5 ovarian = test system: OVCAR-5 ovarian
U251 CNS = test system: U251 CNS
NCI-H226 lung = test system: NCI-H226 lung
RXF 393 renal = test system: RXF 393 renal
MDA-MB-435 = test system: MDA-MB-435
SF-295 CNS = test system: SF-295 CNS
MDA-N = test system: MDA-N
KM12 colon = test system: KM12 colon
SF-268 CNS = test system: SF-268 CNS
DU-145 prostate = test system: DU-145 prostate
HT29 colon = test system: HT29 colon
ACHN renal = test system: ACHN renal
T-47D breast = test system: T-47D breast
PC-3 prostate = test system: PC-3 prostate
RPMI-8226 leukemia = test system: RPMI-8226 leukemia
HCC-2998 colon = test system: HCC-2998 colon
HCT-116 colon = test system: HCT-116 colon
IGROV1 ovarian = test system: IGROV1 ovarian
CAKI-1 renal = test system: CAKI-1 renal
A549 NSCLC = test system: A549 NSCLC
BT-549 breast = test system: BT-549 breast
SNB-19 CNS = test system: SNB-19 CNS
TK-10 renal = test system: TK-10 renal
MOLT-4 leukemia = test system: MOLT-4 leukemia
UACC-257 melanoma = test system: UACC-257 melanoma
K-562 leukemia = test system: K-562 leukemia
A498 renal = test system: A498 renal
UACC-62 melanoma = test system: UACC-62 melanoma
NCI-H23 lung = test system: NCI-H23 lung
NCI-H522 lung = test system: NCI-H522 lung
MDA-MB-231 breast = test system: MDA-MB-231 breast
CCRF-CEM leukemia = test system: CCRF-CEM leukemia
SN12C renal = test system: SN12C renal
SK-MEL-2 melanoma = test system: SK-MEL-2 melanoma
SK-MEL-5 melanoma = test system: SK-MEL-5 melanoma
HOP-92 NSCLC = test system: HOP-92 NSCLC
SNB-75 CNS = test system: SNB-75 CNS
786-0 renal = test system: 786-0 renal
OVCAR-8 ovarian = test system: OVCAR-8 ovarian
SK-OV-3 ovarian = test system: SK-OV-3 ovarian
SW-620 colon = test system: SW-620 colon
EKVX NSCLC = test system: EKVX NSCLC

Measured: TGI

CC(=O)OCC1OC(n2c3c(cc(C#N)c2=S)CCCCC3)C(OC(C)=O)C(OC(C)=O)C1OC(C)=O (centres undefined)
not listed: SK-OV-3 ovarian | SW-620 colon | EKVX NSCLC
> 100 µM: all other assays above

CCOC(=O)NC(Nc1cccc(C(F)(F)F)c1)(C(F)(F)F)C(F)(F)F
not listed: OVCAR-4 ovarian
> 100 µM: all other assays above
